From ChEMBL document CHEMBL1201862, “PubChem BioAssay data set” (2004) come the findings set out here.

SMILES strings stand for the structures. Active and inactive are the calls of the source.

Assay [1] is described as follows: inhibitors of SNCA 5'UTR-driven reporter translation, confirmation, H4 neuroglioma cells, luminescence (AID 1988). The class given is functional, cell-based.
The target of assay [2] is Serine/threonine-protein kinase TBK1 (Homo sapiens, UniProt Q9UHD2). Nature of the assay: Navigating the Kinome. Panel member name: TBK1. Format: functional.
Assay [3] addresses cAMP-dependent protein kinase catalytic subunit alpha (Homo sapiens, UniProt P17612). The class given is functional.
Assay [4] addresses Insulin-like growth factor 1 receptor (Homo sapiens, UniProt P08069). Kind of assay: Navigating the Kinome. Panel member name: IGF1R. The class given is functional.
Assay [5] has as its target Macrophage-stimulating protein receptor (Homo sapiens, UniProt Q04912). Kind of assay: Navigating the Kinome. Panel member name: MST1R. Format: functional.
Assay [6] deals with Death-associated protein kinase 3 (Homo sapiens, UniProt O43293). The class given is functional.
Chain of Death-associated protein kinase 3 (O43293 whole entry): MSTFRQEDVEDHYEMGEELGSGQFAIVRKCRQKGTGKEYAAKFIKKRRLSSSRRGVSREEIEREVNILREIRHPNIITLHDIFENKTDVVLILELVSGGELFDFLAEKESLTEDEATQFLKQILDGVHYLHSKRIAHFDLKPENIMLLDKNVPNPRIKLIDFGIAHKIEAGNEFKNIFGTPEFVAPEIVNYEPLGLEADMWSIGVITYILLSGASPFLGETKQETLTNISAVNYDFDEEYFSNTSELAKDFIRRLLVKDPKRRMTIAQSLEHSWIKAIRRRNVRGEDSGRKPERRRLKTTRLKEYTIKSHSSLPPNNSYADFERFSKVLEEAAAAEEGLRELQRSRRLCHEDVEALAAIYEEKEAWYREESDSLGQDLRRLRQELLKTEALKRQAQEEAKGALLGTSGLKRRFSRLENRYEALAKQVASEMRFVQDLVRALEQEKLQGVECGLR
For assay [7], the target named is Serine/threonine-protein kinase PAK 4 (Homo sapiens, UniProt O96013). The class given is functional.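 Note: value obtained within a kinome profiling panel in which PAK4 was one of the panel members.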
Chain of Serine/threonine-protein kinase PAK 4 (O96013 whole entry): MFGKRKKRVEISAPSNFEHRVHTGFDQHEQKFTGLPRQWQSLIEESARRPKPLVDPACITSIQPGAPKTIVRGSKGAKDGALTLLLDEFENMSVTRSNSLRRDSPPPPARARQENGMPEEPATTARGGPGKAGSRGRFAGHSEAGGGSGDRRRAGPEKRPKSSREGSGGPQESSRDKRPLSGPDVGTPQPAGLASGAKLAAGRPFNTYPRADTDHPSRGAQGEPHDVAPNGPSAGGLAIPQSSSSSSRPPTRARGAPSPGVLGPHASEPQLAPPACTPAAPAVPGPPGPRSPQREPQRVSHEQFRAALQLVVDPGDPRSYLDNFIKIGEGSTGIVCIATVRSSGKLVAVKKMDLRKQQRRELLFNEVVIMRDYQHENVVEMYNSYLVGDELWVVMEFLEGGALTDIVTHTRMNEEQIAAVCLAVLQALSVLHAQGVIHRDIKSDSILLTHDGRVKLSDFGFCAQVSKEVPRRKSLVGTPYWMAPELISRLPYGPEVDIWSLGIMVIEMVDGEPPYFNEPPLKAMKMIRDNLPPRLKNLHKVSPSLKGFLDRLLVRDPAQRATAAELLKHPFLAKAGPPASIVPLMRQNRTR
Assay [8] has as its target Cyclin-dependent kinase 7 (Homo sapiens, UniProt P50613). Format: functional.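 Note: value comes from a kinome-wide kinase profiling panel in which CDK7 is one member.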
Assay [9] deals with Vascular endothelial growth factor receptor 1 (Homo sapiens, UniProt P17948). Format: functional.
For assay [10], the target named is Serine/threonine-protein kinase TAO1 (Homo sapiens, UniProt Q7L7X3). Format: functional.
In assay [11] the target is Cyclin-dependent kinase 5 (Homo sapiens, UniProt Q00535). The class given is functional.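 Note: CDK5 measured as one member of a kinase profiling panel.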
For assay [12], the target named is Tyrosine-protein kinase receptor TYRO3 (Homo sapiens, UniProt Q06418). The class given is functional.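 Note: TYRO3 value obtained as one member of a kinome-wide profiling panel.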
Chain of Tyrosine-protein kinase receptor TYRO3 (Q06418 whole entry): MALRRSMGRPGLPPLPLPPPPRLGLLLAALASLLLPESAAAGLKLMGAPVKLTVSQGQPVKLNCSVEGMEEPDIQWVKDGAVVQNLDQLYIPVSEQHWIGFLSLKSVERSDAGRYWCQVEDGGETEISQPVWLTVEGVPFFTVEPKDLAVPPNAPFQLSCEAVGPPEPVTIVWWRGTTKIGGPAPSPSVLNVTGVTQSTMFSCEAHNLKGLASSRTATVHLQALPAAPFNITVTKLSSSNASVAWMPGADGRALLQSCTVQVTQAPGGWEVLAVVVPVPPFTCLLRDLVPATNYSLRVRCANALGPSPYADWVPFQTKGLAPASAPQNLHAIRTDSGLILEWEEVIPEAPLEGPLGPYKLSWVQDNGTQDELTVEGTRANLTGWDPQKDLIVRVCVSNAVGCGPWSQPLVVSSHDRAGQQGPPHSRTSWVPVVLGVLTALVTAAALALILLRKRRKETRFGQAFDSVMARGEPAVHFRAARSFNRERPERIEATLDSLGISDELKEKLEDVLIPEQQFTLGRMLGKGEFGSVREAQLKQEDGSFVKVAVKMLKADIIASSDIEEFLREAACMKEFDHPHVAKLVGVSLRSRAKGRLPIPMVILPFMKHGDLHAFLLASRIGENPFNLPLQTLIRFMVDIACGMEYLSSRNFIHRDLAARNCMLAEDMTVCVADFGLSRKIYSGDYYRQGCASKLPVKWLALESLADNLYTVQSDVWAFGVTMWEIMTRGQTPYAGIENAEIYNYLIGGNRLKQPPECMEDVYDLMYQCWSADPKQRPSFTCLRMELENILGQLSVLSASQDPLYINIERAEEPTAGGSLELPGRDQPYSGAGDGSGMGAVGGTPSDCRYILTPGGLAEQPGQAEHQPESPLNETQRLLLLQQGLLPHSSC
The target of the next assay is T1, Caspase-3 (Homo sapiens, UniProt P42574).
T1 sequence (P42574 whole entry): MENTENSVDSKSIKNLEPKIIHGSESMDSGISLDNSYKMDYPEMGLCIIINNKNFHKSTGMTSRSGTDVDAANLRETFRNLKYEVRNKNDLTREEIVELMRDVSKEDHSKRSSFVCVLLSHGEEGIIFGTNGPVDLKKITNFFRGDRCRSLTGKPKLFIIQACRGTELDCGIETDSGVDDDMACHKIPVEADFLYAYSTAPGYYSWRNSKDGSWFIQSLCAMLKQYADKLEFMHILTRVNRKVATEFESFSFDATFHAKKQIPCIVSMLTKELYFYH
Nature of the assay: SAR Analysis of small molecule inhibitors of Sentrin-specific proteases (SENPs) using a Caspase-3 Selectivity assay. [Related pubchem assays (depositor defined):AID2540, AID2599, AID434973, AID489001]. Format: functional.

In assay [13] the target is T2, Replicative DNA helicase DnaB (Mycobacterium tuberculosis, UniProt P9WMR3).
T2 sequence (P9WMR3 whole entry): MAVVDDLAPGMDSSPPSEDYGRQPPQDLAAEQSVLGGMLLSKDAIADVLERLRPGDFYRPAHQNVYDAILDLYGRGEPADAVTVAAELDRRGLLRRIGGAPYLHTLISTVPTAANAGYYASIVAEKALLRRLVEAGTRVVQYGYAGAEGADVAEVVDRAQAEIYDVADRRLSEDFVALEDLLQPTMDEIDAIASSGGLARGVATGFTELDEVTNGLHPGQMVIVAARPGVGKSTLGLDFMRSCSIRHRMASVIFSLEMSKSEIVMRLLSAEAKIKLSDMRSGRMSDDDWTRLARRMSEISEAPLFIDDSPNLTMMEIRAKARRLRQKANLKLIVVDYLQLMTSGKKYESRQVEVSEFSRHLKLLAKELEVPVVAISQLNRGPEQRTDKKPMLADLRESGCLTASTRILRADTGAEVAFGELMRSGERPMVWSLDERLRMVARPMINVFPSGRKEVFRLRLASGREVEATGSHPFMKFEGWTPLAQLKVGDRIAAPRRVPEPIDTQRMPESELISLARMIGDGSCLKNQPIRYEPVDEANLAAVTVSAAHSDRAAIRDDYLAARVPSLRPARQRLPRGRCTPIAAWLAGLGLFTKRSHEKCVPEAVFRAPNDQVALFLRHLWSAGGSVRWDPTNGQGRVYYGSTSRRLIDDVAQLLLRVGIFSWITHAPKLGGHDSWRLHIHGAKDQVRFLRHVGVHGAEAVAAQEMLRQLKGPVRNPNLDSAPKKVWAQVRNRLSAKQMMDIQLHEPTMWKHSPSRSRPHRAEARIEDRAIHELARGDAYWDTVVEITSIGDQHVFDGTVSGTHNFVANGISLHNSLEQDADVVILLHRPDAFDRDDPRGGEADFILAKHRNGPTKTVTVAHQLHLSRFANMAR
Nature of the assay: DnaB intein splicing inhibitors, dose response, biochemical, cell-free fluorescence (AID 449749). Format: functional.

Chain of Macrophage-stimulating protein receptor (Q04912 25-304 limits assumed): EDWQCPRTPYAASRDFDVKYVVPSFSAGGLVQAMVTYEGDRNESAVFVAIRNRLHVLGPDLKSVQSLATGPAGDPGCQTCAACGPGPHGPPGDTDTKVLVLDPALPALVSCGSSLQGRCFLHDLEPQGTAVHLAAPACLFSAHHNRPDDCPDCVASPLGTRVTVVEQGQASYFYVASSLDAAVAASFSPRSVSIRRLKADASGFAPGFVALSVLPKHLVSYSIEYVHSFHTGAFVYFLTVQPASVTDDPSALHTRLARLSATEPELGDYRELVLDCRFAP
Chain of Macrophage-stimulating protein receptor (Q04912 310-1400 limits assumed): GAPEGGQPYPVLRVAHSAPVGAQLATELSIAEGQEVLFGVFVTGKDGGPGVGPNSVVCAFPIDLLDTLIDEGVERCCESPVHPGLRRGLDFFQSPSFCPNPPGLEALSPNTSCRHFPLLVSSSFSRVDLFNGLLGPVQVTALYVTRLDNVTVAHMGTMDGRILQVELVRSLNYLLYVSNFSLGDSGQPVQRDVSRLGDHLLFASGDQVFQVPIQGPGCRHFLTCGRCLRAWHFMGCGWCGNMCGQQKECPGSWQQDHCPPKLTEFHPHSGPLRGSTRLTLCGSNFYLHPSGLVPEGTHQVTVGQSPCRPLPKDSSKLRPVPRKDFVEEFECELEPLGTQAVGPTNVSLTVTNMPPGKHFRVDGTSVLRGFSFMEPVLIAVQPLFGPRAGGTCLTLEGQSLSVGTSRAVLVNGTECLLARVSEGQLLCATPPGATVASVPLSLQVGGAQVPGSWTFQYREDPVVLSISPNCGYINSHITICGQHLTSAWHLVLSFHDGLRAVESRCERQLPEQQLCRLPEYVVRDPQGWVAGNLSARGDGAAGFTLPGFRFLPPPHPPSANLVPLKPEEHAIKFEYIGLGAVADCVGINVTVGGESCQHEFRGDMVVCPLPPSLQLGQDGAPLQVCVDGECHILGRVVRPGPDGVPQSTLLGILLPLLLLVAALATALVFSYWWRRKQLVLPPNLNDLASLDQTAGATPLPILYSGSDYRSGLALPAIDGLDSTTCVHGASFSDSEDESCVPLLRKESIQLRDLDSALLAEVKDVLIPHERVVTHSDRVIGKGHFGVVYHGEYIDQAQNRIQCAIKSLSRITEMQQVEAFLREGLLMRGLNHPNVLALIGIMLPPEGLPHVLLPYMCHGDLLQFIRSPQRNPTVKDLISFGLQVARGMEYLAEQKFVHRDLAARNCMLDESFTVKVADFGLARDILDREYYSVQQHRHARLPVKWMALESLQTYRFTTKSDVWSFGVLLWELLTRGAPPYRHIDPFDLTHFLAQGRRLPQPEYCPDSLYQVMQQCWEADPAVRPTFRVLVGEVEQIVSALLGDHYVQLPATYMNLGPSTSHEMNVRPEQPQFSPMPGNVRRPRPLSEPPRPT
Chain of Insulin-like growth factor 1 receptor (P08069 31-736 limits assumed): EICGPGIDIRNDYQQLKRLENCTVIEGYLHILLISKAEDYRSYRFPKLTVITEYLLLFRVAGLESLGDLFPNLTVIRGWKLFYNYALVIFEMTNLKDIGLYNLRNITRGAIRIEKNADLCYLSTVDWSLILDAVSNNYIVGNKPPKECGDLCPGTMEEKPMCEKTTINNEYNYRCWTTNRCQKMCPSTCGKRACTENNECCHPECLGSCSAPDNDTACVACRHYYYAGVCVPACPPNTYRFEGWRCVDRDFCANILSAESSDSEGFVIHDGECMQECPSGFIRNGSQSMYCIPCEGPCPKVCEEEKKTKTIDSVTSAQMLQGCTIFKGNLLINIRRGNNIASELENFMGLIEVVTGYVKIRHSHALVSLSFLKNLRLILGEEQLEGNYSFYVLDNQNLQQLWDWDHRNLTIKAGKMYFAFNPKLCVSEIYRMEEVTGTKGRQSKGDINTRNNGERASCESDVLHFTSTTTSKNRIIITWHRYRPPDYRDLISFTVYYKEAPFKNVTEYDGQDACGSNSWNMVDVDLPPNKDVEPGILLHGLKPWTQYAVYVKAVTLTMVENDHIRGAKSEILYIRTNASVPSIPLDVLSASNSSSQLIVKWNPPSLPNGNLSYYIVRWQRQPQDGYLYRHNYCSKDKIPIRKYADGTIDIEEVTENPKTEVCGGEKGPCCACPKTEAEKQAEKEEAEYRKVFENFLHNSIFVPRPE
Chain of Insulin-like growth factor 1 receptor (P08069 741-1367 limits assumed): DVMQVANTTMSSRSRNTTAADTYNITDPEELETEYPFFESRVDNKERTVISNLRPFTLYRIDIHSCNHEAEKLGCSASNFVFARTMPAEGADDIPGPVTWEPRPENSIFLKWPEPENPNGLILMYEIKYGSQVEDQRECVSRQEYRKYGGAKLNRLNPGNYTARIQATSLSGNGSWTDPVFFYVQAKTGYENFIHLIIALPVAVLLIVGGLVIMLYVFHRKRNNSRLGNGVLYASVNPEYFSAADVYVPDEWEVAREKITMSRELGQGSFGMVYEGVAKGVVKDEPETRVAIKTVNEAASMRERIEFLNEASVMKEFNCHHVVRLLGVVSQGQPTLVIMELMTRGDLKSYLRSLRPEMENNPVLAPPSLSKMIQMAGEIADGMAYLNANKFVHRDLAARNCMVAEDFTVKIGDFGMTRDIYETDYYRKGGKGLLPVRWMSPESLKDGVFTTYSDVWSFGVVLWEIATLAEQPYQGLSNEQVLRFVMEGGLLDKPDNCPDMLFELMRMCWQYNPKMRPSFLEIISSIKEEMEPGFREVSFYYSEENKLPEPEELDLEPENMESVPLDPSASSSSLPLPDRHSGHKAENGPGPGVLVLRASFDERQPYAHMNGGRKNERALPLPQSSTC
Chain of Cyclin-dependent kinase 7 (P50613 whole entry): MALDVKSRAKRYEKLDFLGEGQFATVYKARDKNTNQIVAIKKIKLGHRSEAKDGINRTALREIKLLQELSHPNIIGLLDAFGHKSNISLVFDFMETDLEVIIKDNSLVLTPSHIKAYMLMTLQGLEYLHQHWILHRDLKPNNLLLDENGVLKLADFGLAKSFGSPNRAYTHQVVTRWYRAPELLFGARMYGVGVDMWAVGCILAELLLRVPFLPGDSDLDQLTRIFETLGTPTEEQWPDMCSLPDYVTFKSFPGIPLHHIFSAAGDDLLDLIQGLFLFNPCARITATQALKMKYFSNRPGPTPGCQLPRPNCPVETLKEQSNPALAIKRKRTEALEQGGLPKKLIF

Turning to `O=Nc1c(-c2c(O)[nH]c3cc(Br)ccc23)[nH]c2ccccc12`, in assay [1], the EC50 is 9.31 µM (active).
On to `COc1cccc(C(C)NC(=O)c2ccc(-c3ccncc3)s2)c1` (centres undefined), for which the Ki was > 3.16 µM (inactive) in [2]; 0.0794 µM (active) in assay [3]; > 2.51 µM (inactive) in assay [4]; > 3.98 µM (inactive) in assay [5]; > 5.01 µM (inactive) in assay [6]; > 5.01 µM (inactive) in assay [7]. Moreover, the Ki in assay [8] was > 3.98 µM (inactive); in [9], > 3.98 µM (inactive); in assay [10], > 6.31 µM (inactive); in assay [11] it was > 3.16 µM (inactive); in assay [12] it was > 3.16 µM (inactive).
`Cc1ccc(NC(=O)COc2cccc(/C=C3\SC(=S)N(CCC(=O)O)C3=O)c2)cc1Cl`: the IC50 at Caspase-3 was > 99 µM (inactive). In addition, the half-maximal activity concentration (AC50) in assay [13] was 6.13 µM (active).
